Values joined by “and” are separate entries in the source; they are usually repeats but may differ in a detail not shown here. Identical values can stand only once.
Key:
[1] = tested on: L1, p16, IFN-I and SASP gene expression; assay: RT-qPCR of L1, p16, IFN-I and SASP genes in mouse tissues after drug in drinking water; assay type: in vivo; conditions: for IFNA Individual Foldchanges / IL6 Individual Foldchanges / IRF7 Individual Foldchanges / L1 Individual Foldchanges / MMP3 Individual Foldchanges / OAS1 Individual Foldchanges / PAI Individual Foldchanges / p16 Individual Foldchanges: one animal per line, listed as 3TC; for IFNA Age-group Foldchanges / IL6 Age-group Foldchanges / IRF7 Age-group Foldchanges / L1 Age-group Foldchanges / MMP3 Age-group Foldchanges / OAS1 Age-group Foldchanges / PAI Age-group Foldchanges / p16 Age-group Foldchanges: relative to 05 mo-WT
Experimental: C57BL/6J mice of both sexes were obtained from the NIA Aged Rodent Colonies^61 at 5 and 18 months of age. The 5-month old animals were sacrificed after a short (1 week) acclimatization period, a variety of tissues were harvested, snap frozen in LN2 and stored at −80° C. The 18-month old animals were housed until they reached a desired age. Mice were housed in a specific pathogen-free AAALAC-certified barrier facility. Cages, bedding (Sani-chip hardwood bedding) and food (Purina Lab Chow 5010) were sterilized by autoclaving. Food and water (also sterilized) were provided ad libitum. A light-dark cycle of 12 hours was used (7 AM On, 7 PM Off). Temperature was maintained at 70° F., and humidity at 50%. All animals were observed daily and weighed once per week. In a pilot experiment, three cohorts of 10 animals each were treated with 3TC dissolved in drinking water (1.5 mg/ml, 2.0 mg/ml, 2.5 mg/ml) continuously from 18 months until sacrifice at 24 months. The fourth (control) cohort was provided with the same water without drug. […] Once during the experiment (at 20 months of age) the animals were subjected to a single tail bleed of approximately 70 μL. […] They were then assigned randomly to two cohorts by a technician that was blinded to the appearance or other characteristics of the animals. One cohort was treated for 2 weeks with 2 mg/mL of 3TC in drinking water, and the other (control) cohort with same water without drug, administered in the same manner. At the end of the treatment period all animals were sacrificed and harvested for tissues as described above. All the animals in both cohorts were all included in all subsequent analyses. The experiment was performed on separate occasions with male and female animals.
Reverse transcription qPCR (RT-qPCR) of RNA was performed using the SYBR Green system (Applied Biosystems). Polyadenylated RNA was used in all experiments assessing transcription of L1 elements, and total RNA was used for all other genes. Total RNA was harvested using the Trizol reagent (Invitrogen). Poly(A) RNA was isolated from total RNA using the NEBNext Poly(A) mRNA Magnetic Isolation Module (New England Biolabs). 1 μg of total RNA, or 10 ng of poly(A) RNA, were reverse-transcribed into cDNA in 50 μL reactions using the TaqMan kit (Applied Biosystems). To assess strand-specific transcription, the random primers in the RT reaction were substituted with a strand-specific primer to the target RNA. 1 μL of each RT reaction was used in subsequent qPCR reactions. […] The arithmetic mean of Gapdh and two additional controls (Hsp90 and GusB) was used for normalization of RT-qPCR experiments with murine tissues, with the exception of liver that was normalized to Hsp90 and GusB. For measuring L1 transcription, poly(A) RNA samples were exhaustively digested with RNase-free DNase (Qiagen) prior to the synthesis of cDNA6. Effectiveness of the DNase digestion was assessed using controls that omitted the RT enzyme.

[2] = 3TC concentration in mouse plasma; assay type: in vivo; conditions: both sexes, C57BL/6J, oral, mice, 2 mg/mL in drinking water cohort, tail bleed at 20 months of age
Experimental: C57BL/6J mice of both sexes were obtained from the NIA Aged Rodent Colonies^61 at 5 and 18 months of age. The 5-month old animals were sacrificed after a short (1 week) acclimatization period, a variety of tissues were harvested, snap frozen in LN2 and stored at −80° C. The 18-month old animals were housed until they reached a desired age. Mice were housed in a specific pathogen-free AAALAC-certified barrier facility. Cages, bedding (Sani-chip hardwood bedding) and food (Purina Lab Chow 5010) were sterilized by autoclaving. Food and water (also sterilized) were provided ad libitum. A light-dark cycle of 12 hours was used (7 AM On, 7 PM Off). Temperature was maintained at 70° F., and humidity at 50%. All animals were observed daily and weighed once per week. In a pilot experiment, three cohorts of 10 animals each were treated with 3TC dissolved in drinking water (1.5 mg/ml, 2.0 mg/ml, 2.5 mg/ml) continuously from 18 months until sacrifice at 24 months. The fourth (control) cohort was provided with the same water without drug. […] Once during the experiment (at 20 months of age) the animals were subjected to a single tail bleed of approximately 70 μL. The collected plasma was shipped to the University of North Carolina CFAR Clinical Pharmacology and Analytical Chemistry Core for analysis of 3TC. For the 2 mg/mL cohort the concentration of 3TC in plasma averaged 7.2 μM. […]

Structure (SMILES): Nc1ccn([C@@H]2CS[C@H](CO)O2)c(=O)n1 [Lamivudine]
- IFNA Individual Foldchanges ([1]; 05 mo mice + 3TC): 1.821 and 2.748 and 2.909 and 0.645 and 0.465 and 0.346
- IL6 Individual Foldchanges ([1]; 05 mo mice + 3TC): 1.455 and 0.924 and 5.604 and 1.622 and 1.920 and 0.751
- IRF7 Individual Foldchanges ([1]; 05 mo mice + 3TC): 1.040 and 1.153 and 1.132 and 0.684 and 0.565 and 0.960
- L1 Individual Foldchanges ([1]; 05 mo mice + 3TC): 1.458 and 1.464 and 0.484 and 1.829 and 2.537 and 0.747
- MMP3 Individual Foldchanges ([1]; 05 mo mice + 3TC): 1.587 and 0.601 and 1.946 and 0.711 and 0.635 and 0.476
- OAS1 Individual Foldchanges ([1]; 05 mo mice + 3TC): 2.867 and 1.521 and 6.031 and 1.317 and 0.037 and 1.603
- PAI Individual Foldchanges ([1]; 05 mo mice + 3TC): 2.291 and 0.842 and 2.212 and 1.683 and 0.180 and 0.380
- p16 Individual Foldchanges ([1]; 05 mo mice + 3TC): 2.881 and 0.457 and 0.957 and 0.270 and 0.104 and 0.541
- IFNA Age-group Foldchanges ([1]; 05 mo mice + 3TC): 1.489
- IL6 Age-group Foldchanges ([1]; 05 mo mice + 3TC): 2.046
- IRF7 Age-group Foldchanges ([1]; 05 mo mice + 3TC): 0.922
- L1 Age-group Foldchanges ([1]; 05 mo mice + 3TC): 1.420
- MMP3 Age-group Foldchanges ([1]; 05 mo mice + 3TC): 0.993
- OAS1 Age-group Foldchanges ([1]; 05 mo mice + 3TC): 2.229
- PAI Age-group Foldchanges ([1]; 05 mo mice + 3TC): 1.265
- p16 Age-group Foldchanges ([1]; 05 mo mice + 3TC): 0.868
- IFNA Individual Foldchanges ([1]; 26 mo mice + 3TC): 10.115 and 2.941 and 4.156 and 1.283 and 1.601 and 8.335 and 19.836 and 3.982 and 6.531 and 8.332 and 5.514 and 6.321
- IL6 Individual Foldchanges ([1]; 26 mo mice + 3TC): 1.116 and 1.553 and 2.194 and 0.686 and 1.395 and 1.291 and 8.067 and 0.654 and 2.119 and 3.177 and 1.148 and 4.866
- IRF7 Individual Foldchanges ([1]; 26 mo mice + 3TC): 0.540 and 0.506 and 0.498 and 0.424 and 0.954 and 3.302 and 0.993 and 1.155 and 0.950 and 1.866
- L1 Individual Foldchanges ([1]; 26 mo mice + 3TC): 2.819 and 2.160 and 2.053 and 1.491 and 6.524 and 2.863 and 7.191 and 5.433 and 3.817 and 4.409 and 5.864 and 2.745
- MMP3 Individual Foldchanges ([1]; 26 mo mice + 3TC): 1.044 and 0.972 and 1.618 and 1.650 and 1.033 and 1.166 and 4.484 and 0.374 and 1.543 and 3.656 and 1.964 and 1.637
- OAS1 Individual Foldchanges ([1]; 26 mo mice + 3TC): 1.658 and 0.643 and 0.055 and 0.482 and 1.094 and 0.695 and 7.091 and 3.841 and 1.945 and 0.636 and 0.565 and 1.469
- PAI Individual Foldchanges ([1]; 26 mo mice + 3TC): 1.034 and 1.056 and 2.696 and 0.493 and 1.562 and 1.675 and 2.347 and 0.529 and 0.747 and 8.508 and 6.112 and 7.313
- p16 Individual Foldchanges ([1]; 26 mo mice + 3TC): 2.290 and 3.653 and 1.731 and 1.168 and 0.844 and 1.243 and 3.690 and 2.458 and 2.135 and 4.053 and 1.969 and 1.326
- IFNA Age-group Foldchanges ([1]; 26 mo mice + 3TC): 6.579
- IL6 Age-group Foldchanges ([1]; 26 mo mice + 3TC): 2.355
- IRF7 Age-group Foldchanges ([1]; 26 mo mice + 3TC): 1.076
- L1 Age-group Foldchanges ([1]; 26 mo mice + 3TC): 3.947
- MMP3 Age-group Foldchanges ([1]; 26 mo mice + 3TC): 1.762
- OAS1 Age-group Foldchanges ([1]; 26 mo mice + 3TC): 1.681
- PAI Age-group Foldchanges ([1]; 26 mo mice + 3TC): 2.839
- p16 Age-group Foldchanges ([1]; 26 mo mice + 3TC): 2.213
- concentration at 2 months of continuous dosing (sampled at 20 months of age) [2]: 7.2 µM

— US12246022B2, “Compositions and methods for treating, preventing or reversing age associated inflammation and disorders” (BROWN UNIVERSITY, priority 2019, dated 2025)
